Assay results reported in patent US20110269763A1, “CRTH2 receptor ligands for medicinal uses” (7TM Pharma A/S, priority 2004, published 2011).

Columns and labels:
human CRTH2 [1] = molecular target: T1, human CRTH2 (Homo sapiens, UniProt Q9Y5Y4, V204A); assay: Functional antagonist BRET assay on HEK293 cells stably expressing human CRTH2-Rluc and GFP2-β-arr2; assay type: cell-based; set-up: expressed in transfected cells; conditions: BRET, antagonist incubated 15 minutes prior to agonist; read-out: Antag. IC50
T1 sequence (Q9Y5Y4 1-395 V204A): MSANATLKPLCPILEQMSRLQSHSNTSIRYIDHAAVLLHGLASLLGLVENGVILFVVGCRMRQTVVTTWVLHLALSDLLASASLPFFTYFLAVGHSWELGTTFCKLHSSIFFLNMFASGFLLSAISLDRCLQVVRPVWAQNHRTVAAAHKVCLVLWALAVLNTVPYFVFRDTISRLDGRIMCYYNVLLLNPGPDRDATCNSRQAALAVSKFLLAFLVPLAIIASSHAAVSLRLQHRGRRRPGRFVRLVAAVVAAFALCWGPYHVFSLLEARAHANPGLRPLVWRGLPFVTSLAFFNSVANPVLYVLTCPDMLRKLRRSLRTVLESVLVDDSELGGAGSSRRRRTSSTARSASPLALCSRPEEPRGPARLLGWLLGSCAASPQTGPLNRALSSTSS
Source text: (§1) Generation/origin of the cDNA Constructs. The coding sequence of the human CRTH2 receptor (genbank accession no NM_004778) was amplified by PCR from a human hippocampus cDNA library and inserted into the pcDNA3.1(+) expression vector (invitrogen) via 5′ HindIII and 3′ EcoRI. To generate a CRTH2-Renilla luciferase (CRTH2-Rluc) fusion protein, the CRTH2 coding sequence without a STOP codon and Rluc were amplified, fused in frame by PCR and subcloned into the pcDNA3.1(+)Zeo expression vector (invitrogen). Human β-arrestin2 (β-arr2) N-terminally tagged with GFP^2 (βarr2-GFP^2) and Renilla luciferase were purchased from BioSignal Packard Inc, (Montreal, Canada). The sequence identity of the construct was verified by restriction endonuclease digests and sequencing in both directions on an ABI Prism (Applied Biosystems, Foster City, Calif.).
(§2) Cell Culture and Transfection. COS-7 cells were grown in Dulbecco's modified Eagle's medium (DMEM) 1885 supplemented with 10% fetal bovine serum, 100 units/ml penicillin, […] streptomycin, and kept at 37° C. in a 10% CO2 atmosphere. HEK293 cells were maintained in Minimum Essential medium (MEM) supplemented with 10% (v/v) heat inactivated fetal calf serum (HIFCS), 2 mM Glutamax™-I, 1% non essential amino acids (NEAA), 1% sodium pyruvate and 10 μg/ml gentamicin. For binding experiments, COS7 cells were transiently transfected with the CRTH2 receptor using a calcium phosphate-DNA coprecipitation method with the addition of chloroquine (as described by Holst et al., 2001↓). To perform the functional Bioluminescence Resonance Energy Transfer (BRET) assays, a HEK293 cell clone stably expressing βarr2-GFP^2 and CRTH2-Rluc was generated (CRTH2-HEK293 cells).
BRET assay. Functional BRET assays were performed on HEK293 cells stably expressing human CRTH2-Rluc and GFP^2-β-arr2. Prior to their use in the BRET assay cells were detached and re-suspended in D-PBS with 1000 mg/L L-Glucose at a density of 2×10^6 cells/mL. DeepBlueC™ was diluted to 50 μM in D-PBS with 1000 mg/L L-Glucose (light sensitive). 100 μL of cell suspension was transferred to wells in a 96-well microplate (white OptiPlate) and placed in the Mithras LB 940 instrument (BERTHOLD TECHNOLOGIES, Bad Wildbad, Germany). 12 μL/well agonist was then injected by injector 1 and 10 μL/well DeepBlueC™ was injected simultaneously by injector 2. Five seconds after the injections the light output from the well was measured sequentially at 400 nm and 515 nm, and the BRET signal (mBRET ratio) was calculated by the ratio of the fluorescence emitted by GFP^2-β-arr2 (515 nm) over the light emitted by the receptor-Rluc (400 nm). Antagonists were added before placing the microplates into the Mithras LB 940 and allowed to incubate for 15 minutes prior to the addition of agonist and DeepBlueC™. Compounds were dissolved in DMSO and the final DMSO concentration was kept constant at 1% in the assay.
(§3) Curve analysis was performed with the GraphPadPrism software 3.0 (Graphpad Prism Inc., San Diego, USA) and IC50 values were calculated as a measure of the antagonistic potencies.

human CRTH2 [2] = molecular target: T1, human CRTH2; assay: Receptor binding assay: [3H]PGD2 competition binding on whole COS-7 cells transiently transfected with CRTH2 (also stable HEK293 cells); set-up: expressed in transfected cells; host or cells: COS-7 (transient, calcium phosphate); conditions: competition with 0.1 nM [3H]PGD2, whole cells, 3 h at 4° C.
Source text: as §1, §2
Binding assay. 24 h after transfection COS-7 cells were seeded into 96 well plates at a density of 30.000 cells/well. Competition binding experiments on whole cells were then performed about 18-24 h later using 0.1 nM [^3H]PGD2 (NEN, 172 Ci/mmol) in a binding buffer consisting of HBSS (GIBCO) and 10 mM HEPES. Competing ligands were diluted in DMSO which was kept constant at 1% (v/v) of the final incubation volume. Total and nonspecific binding were determined in the absence and presence of 10 μM PGD2. Binding reactions were routinely conducted for 3 h at 4° C. and terminated by 2 washes (100 μl each) with ice cold binding buffer. Radioactivity was determined by liquid scintillation counting in a TOPCOUNTER (Packard) following over night incubation in Microscint 20. Stable HEK293 cells were seeded at a density of 30.000 cells/well 18-24 h prior to the binding assay which was performed essentially as described for COS7 cells above. Determinations were made in duplicates.
as §3

**Q.** What does the source list for `O=C(O)COc1ccc(Br)cc1C(=O)c1cnn(-c2ccc(Cl)cc2Cl)c1` [D26, 4-Bromo-2-[1-(2,4-dichlorophenyl)-1H-pyrazole-4-carbonyl]phenoxyacetic acid]?
**A.** IC50 (human CRTH2 [1]): < 500 nM; IC50 (human CRTH2 [2]): < 500 nM

**Q.** What does the source list for `O=C(O)COc1ccc([N+](=O)[O-])cc1C(=O)c1cnn(-c2ccccc2Cl)c1` [D27, 4-Nitro-2-[1-(2-chlorophenyl)-1H-pyrazole-4-carbonyl]phenoxyacetic acid]?
**A.** IC50 (human CRTH2 [1]): < 500 nM; IC50 (human CRTH2 [2]): < 500 nM

**Q.** `O=C(O)COc1ccc([N+](=O)[O-])cc1C(=O)c1cnn(-c2ccccc2Br)c1` [D28, 4-Nitro-2-[1-(2-bromophenyl)-1H-pyrazole-4-carbonyl]phenoxyacetic acid] was tested. Which IC50 (human CRTH2 [1]) did it give?
**A.** The IC50 was less than 500 nM.

**Q.** What about the IC50 (human CRTH2 [2]) of the same molecule?
**A.** Its IC50 is less than 500 nM.

**Q.** How did the IC50 (human CRTH2 [1]) turn out when `O=C(O)COc1ccc(Br)cc1C(=O)c1cnn(-c2c(Cl)cccc2Cl)c1` [D29, 4-Bromo-2-[1-(2,6-dichlorophenyl)-1H-pyrazole-4-carbonyl]phenoxyacetic acid] was run?
**A.** Its IC50 is less than 500 nM.

**Q.** And the IC50 (human CRTH2 [2])?
**A.** Its IC50 is less than 500 nM.

**Q.** With `CCc1ccc(OCC(=O)O)c(C(=O)c2cnn(-c3ccccc3Br)c2)c1` [D30, 4-Ethyl-2-[1-(2-bromophenyl)-1H-pyrazole-4-carbonyl]phenoxyacetic acid] as the molecule, how does the IC50 (human CRTH2 [1]) read?
**A.** Its IC50 is less than 500 nM.

**Q.** What about the IC50 (human CRTH2 [2]) of the same molecule?
**A.** Its IC50 is less than 500 nM.

**Q.** What does the source list for `CC(C)c1ccc(OCC(=O)O)c(C(=O)c2cnn(-c3ccccc3Cl)c2)c1` [D31, 2-[1-(2-Chlorophenyl)-1H-pyrazole-4-carbonyl]-4-isopropylphenoxyacetic acid]?
**A.** IC50 (human CRTH2 [1]): < 500 nM; IC50 (human CRTH2 [2]): < 500 nM

**Q.** How did the IC50 (human CRTH2 [1]) turn out when `O=C(O)COc1ccc(Br)cc1C(=O)c1cnn(-c2ccc(OC(F)(F)F)cc2)c1` [D32] was run?
**A.** The IC50 was less than 500 nM.

**Q.** What about the IC50 (human CRTH2 [2]) of the same molecule?
**A.** Its IC50 is less than 500 nM.

**Q.** How did the IC50 (human CRTH2 [1]) turn out when `O=C(O)COc1ccc(Br)cc1C(=O)c1cnn(-c2ccc(Br)cc2Br)c1` [D33, 4-Bromo-2-[1-(2,4-dibromophenyl)-1H-pyrazole-4-carbonyl]phenoxyacetic acid] was run?
**A.** Its IC50 is less than 500 nM.

**Q.** What about the IC50 (human CRTH2 [2]) of the same molecule?
**A.** The IC50 was less than 500 nM.

**Q.** Which results are given for `O=C(O)COc1ccc(Br)cc1C(=O)c1cnn(-c2ccc(Br)cc2Cl)c1` [D34, 4-Bromo-2-[1-(4-bromo-2-chlorophenyl)-1H-pyrazole-4-carbonyl]phenoxyacetic acid]?
**A.** IC50 (human CRTH2 [1]): < 500 nM; IC50 (human CRTH2 [2]): < 500 nM

**Q.** What does the source list for `O=C(O)COc1ccc(Br)cc1C(=O)c1cnn(-c2c(Cl)cc(Cl)cc2Cl)c1` [D35, 4-Bromo-2-[1-(2,4,6-trichlorophenyl)-1H-pyrazole-4-carbonyl]phenoxyacetic acid]?
**A.** IC50 (human CRTH2 [1]): < 500 nM; IC50 (human CRTH2 [2]): < 500 nM

**Q.** What does the source list for `COc1ccc(OCC(=O)O)c(C(=O)c2cnn(-c3ccccc3)c2)c1` [D36, 4-Methoxy-2-[1-phenyl-1H-pyrazole-4-carbonyl]phenoxyacetic acid]?
**A.** IC50 (human CRTH2 [1]): 500 to 5000 nM; IC50 (human CRTH2 [2]): < 500 nM

**Q.** Which IC50 (human CRTH2 [1]) does the source give for `CC(Oc1ccc(Br)cc1C(=O)c1cnn(-c2ccccc2Cl)c1)C(=O)O` (stereo not shown) [D38, 2-{4-Bromo-2-[1-(2-chlorophenyl)-1-H-pyrazole-4-carbonyl]phenoxy}propionic acid] here?
**A.** The IC50 was less than 500 nM.

**Q.** What about the IC50 (human CRTH2 [2]) of the same molecule?
**A.** Its IC50 is less than 500 nM.

**Q.** Which IC50 (human CRTH2 [1]) does the source give for `CC(Oc1ccc(Br)cc1C(=O)c1cnn(-c2c(Cl)cccc2Cl)c1)C(=O)O` (stereo not shown) [D39, 2-{4-Bromo-2-[1-(2,6-dichlorophenyl)-1H-pyrazole-4-carbonyl]phenoxy}propionic acid] here?
**A.** Its IC50 is less than 500 nM.

**Q.** What about the IC50 (human CRTH2 [2]) of the same molecule?
**A.** The IC50 was less than 500 nM.

**Q.** Which results are given for `N#Cc1ccccc1-n1cc(C(=O)c2cc(Br)ccc2OCC(=O)O)cn1` [D40, {4-Bromo-2-[1-(2-cyano-phenyl)-1H-pyrazole-4-carbonyl]phenoxy}acetic acid]?
**A.** IC50 (human CRTH2 [1]): < 500 nM; IC50 (human CRTH2 [2]): < 500 nM

**Q.** With `CCOc1ccccc1-n1cc(C(=O)c2cc(Br)ccc2OCC(=O)O)cn1` [D41, {4-Bromo-2-[1-(2-ethoxyphenyl)-1H-pyrazole-4-carbonyl]phenoxy}acetic acid] as the molecule, how does the IC50 (human CRTH2 [1]) read?
**A.** The IC50 was less than 500 nM.

**Q.** What about the IC50 (human CRTH2 [2]) of the same molecule?
**A.** Its IC50 is less than 500 nM.

**Q.** With `CCc1cc(Br)ccc1-n1cc(C(=O)c2cc(Br)ccc2OCC(=O)O)cn1` [D42, {4-Bromo-2-[1-(4-bromo-2-ethylphenyl)-1H-pyrazole-4-carbonyl]phenoxy}acetic acid] as the molecule, how does the IC50 (human CRTH2 [1]) read?
**A.** The IC50 was less than 500 nM.

**Q.** And the IC50 (human CRTH2 [2])?
**A.** The IC50 was less than 500 nM.

**Q.** What does the source list for `O=C(O)COc1ccc(Br)cc1C(=O)c1cnn(-c2ccccc2Oc2ccccc2)c1` [D43, {4-Bromo-2-[1-(2-phenoxyphenyl)-1H-pyrazole-4-carbonyl]phenoxy}acetic acid]?
**A.** IC50 (human CRTH2 [1]): < 500 nM; IC50 (human CRTH2 [2]): < 500 nM
